1 compound from patent US7772183B2 (Bristol-Myers Squibb Company, priority 2005, dated 2010) can be followed below.

Format in all cases: biochemical
Experiment [1] has as its system human pancreatic chymotrypsin. Nature of the experiment: Specificity assay, chymotrypsin. The conditions noted are these: read-out: Chymotrypsin activity in the specificity assays. The method, then: (§1) The specificities of compounds of the present disclosure were determined against a variety of serine proteases: human neutrophil elastase (HNE), porcine pancreatic elastase (PPE) and human pancreatic chymotrypsin and one cysteine protease: human liver cathepsin B. In all cases, a 96-well plate format protocol using colorimetric p-nitroaniline (pNA) substrate or fluorometric Amino-Methyl-Coumarin (AMC) substrate, specific for each enzyme was used as described previously (PCT Patent Application No. WO 00/09543) with some modifications. All enzymes were purchased from Sigma or EMDbiosciences while the substrates were from Bachem.
(§2) Each pNA assay included a 2 h enzyme-inhibitor pre-incubation at room temperature followed by addition of substrate and hydrolysis to ˜15% conversion as measured on a Spectramax Pro microplate reader. The cathepsin B assay was initiated by adding substrate to a 10 min enzyme-inhibitor pre-incubation at room temperature, and the assay plate measured immediately using the Cytofluor Series 4000. Compound concentrations varied from 100 to 0.4 μM depending on their potency.
(§3) The final conditions for each assay were as follows: […]
(§4) The percentage of inhibition was calculated using the formula: [1−((UVinh−UVblank)/(UVctl−UVblank))]×100 […]

Experiment [2] addresses T1, HCV NS3/4A protease complex, J4L6S strain (Hepatitis C virus genotype 1b, UniProt O92972, C1454S/C1711G).
T1 construct: DNA encoding the recombinant HCV NS3/4A protease complex (amino acids 1027 to 1711) for these strains; inferred from the pET21b vector and Ni-NTA purification; made in house; host or cells: Escherichia coli BL21 (DE3), pET21b
The experiment can be described thus: FRET peptide assay to monitor HCV NS3/4A proteolytic activity (J4L6S strain). The text has this:
HCV NS3 protease complexes, derived from the BMS strain, H77 strain or J4L6S strain, were generated, as described below. These purified recombinant proteins were generated for use in a homogeneous assay (see below) to provide an indication of how effective compounds of the present disclosure would be in inhibiting HCV NS3 proteolytic activity.
Serum from an HCV-infected patient was obtained from Dr. T. Wright, San Francisco Hospital. An engineered full-length cDNA (compliment deoxyribonucleic acid) template of the HCV genome (BMS strain) was constructed from DNA fragments obtained by reverse transcription-PCR (RT-PCR) of serum RNA (ribonucleic acid) and using primers selected on the basis of homology between other genotype 1a strains. From the determination of the entire genome sequence, a genotype 1a was assigned to the HCV isolate according to the classification of Simmonds et al. (See P Simmonds, K A Rose, S Graham, S W Chan, F McOmish, B C Dow, E A Follett, P L Yap and H Marsden, J. Clin. Microbiol., 31(6), 1493-1503 (1993)). […]

For experiment [3], the target named is T2, porcine pancreatic elastase (PPE) (Sus scrofa, UniProt P00772).
T2 construct: purchased Sigma or EMDbiosciences
T2 sequence (P00772 27-266): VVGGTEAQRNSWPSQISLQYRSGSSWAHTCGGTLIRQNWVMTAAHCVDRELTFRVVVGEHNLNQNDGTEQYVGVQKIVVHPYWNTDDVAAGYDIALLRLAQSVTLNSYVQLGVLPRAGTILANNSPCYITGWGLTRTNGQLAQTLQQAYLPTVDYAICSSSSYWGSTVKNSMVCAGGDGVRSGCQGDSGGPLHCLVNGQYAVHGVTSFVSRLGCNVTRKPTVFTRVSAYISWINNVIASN
The experiment can be described thus: Specificity assay, pancreatic elastase. The conditions noted are these: read-out: PPE activity in the specificity assays. The method, then: as §1, §2, §3, §4

T1 sequence (O92972 1027-1711 C1454S/C1711G, one chain of several): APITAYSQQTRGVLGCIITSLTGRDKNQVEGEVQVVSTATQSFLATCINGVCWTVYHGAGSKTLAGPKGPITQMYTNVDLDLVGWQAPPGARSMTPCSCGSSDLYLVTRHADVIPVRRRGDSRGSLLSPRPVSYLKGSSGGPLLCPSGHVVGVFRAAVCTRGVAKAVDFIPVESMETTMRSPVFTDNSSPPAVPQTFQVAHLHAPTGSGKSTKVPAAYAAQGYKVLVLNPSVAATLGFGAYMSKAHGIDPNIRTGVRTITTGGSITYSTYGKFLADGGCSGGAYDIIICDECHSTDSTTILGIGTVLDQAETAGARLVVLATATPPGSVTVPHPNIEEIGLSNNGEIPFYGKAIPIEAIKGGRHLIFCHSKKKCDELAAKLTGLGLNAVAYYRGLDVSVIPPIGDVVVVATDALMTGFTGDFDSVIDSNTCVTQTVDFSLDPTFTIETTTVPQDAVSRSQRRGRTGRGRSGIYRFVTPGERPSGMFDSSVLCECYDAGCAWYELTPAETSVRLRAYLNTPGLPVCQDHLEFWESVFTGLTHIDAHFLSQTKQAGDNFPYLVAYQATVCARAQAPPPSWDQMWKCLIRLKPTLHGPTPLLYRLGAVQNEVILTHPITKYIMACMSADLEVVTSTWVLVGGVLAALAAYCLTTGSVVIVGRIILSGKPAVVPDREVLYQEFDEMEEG

As to `CC(C)(C)OC(=O)N[C@H]1CCCCC/C=C\[C@@H]2C[C@@]2(C(=O)NS(=O)(=O)C2CC2)NC(=O)[C@@H]2C[C@@H](OC(=O)c3ccc(C#N)cc3)CN2C1=O` [Compound 26, 18-(4-cyanobenzoyloxy)-14-tert-butoxycarbonylamino-4-cyclopropylsulfonylaminocarbonyl-2,15-dioxo-3,16-diazatricyclo-[14.3.0.0^4,6]-nonadec-7-ene], the figures for the IC50 in experiment [1], in experiment [2] and in experiment [3] were more than 100 µM, 0.00023 µM and more than 100 µM, respectively.
